{"source": "patent US20190275040A1", "about": "“COMPOUNDS AND METHODS FOR TREATING OR PREVENTING ALZHEIMER'S DISEASE” (YALE UNIVERSITY, priority 2016, published 2019)", "key": {"[1]": {"assay": "Brain and plasma levels after peripheral dosing (LC/MS/MS)", "format": "in vivo, mouse", "description": "In brain slices and in dissociated primary neuronal cultures, Aβo causes Fyn activation, Pyk2 activation, altered Glu-induced calcium signaling, dendritic spine loss and suppression of LTP. […] After developing LC/MS/MS methods to detect PF-719, the extent to which the Pyk2 inhibitor enters brain from peripheral dosing was determined. […] Continuous 25 mg/kg/d minipump i.p. infusion was chosen for treatment of APP/PS1 mice."}, "[2]": {"system": "APP/PS1 transgenic mice", "assay": "Learning and memory (novel object recognition, Morris water maze) in APP/PS1 transgenic mice", "format": "in vivo, mouse", "settings": "12 month APP/PS1 mice, 25 mg/kg/d minipump i.p. infusion, 3-6 weeks", "description": "FIG. 5A plots the time mice spent interacting with a familiar and a novel object. Mean±SEM, n=10-16 mice. *, p<0.05; **, p<0.01 by two-way ANOVA, Sidak's multiple comparisons test. FIG. 5B depicts spatial learning and memory as examined by the Morris-Water-Maze after 30 swim trials to a hidden platform. A 60 second probe trial was performed 24 hours after completion of training. Time spent in the quadrant where the hidden platform had been located. Mean±SEM of n=7-23 mice. *, p<0.05; ***, p<0.001. Dashed lines in FIGS. 5A-5B are chance (no memory). […]\nThe efficacy of PF-719 Pyk2 inhibitor to rescue AD transgenic phenotypes was tested by infusion for 6 weeks in 12 month APP/PS1 transgenic with pre-established memory deficits and WT mice, similar to the SAM 923 and Pyk2−/− experiments. […] The brains of these mice are analyzed for synapse density, gliosis and Aβ. […]\nMice were handled for five minutes a day for five days prior to experiment to reduce anxiety. […] Object choice was pseudorandom; the object was recorded as the familiar object for each animal. The mouse was then replaced in cage's center, not facing either object, and a total timer counted up to ten minutes. The mice were allowed to explore the object and the time it took to accumulate thirty seconds of total orofacial object exploration was recorded. […]"}}, "data": [{"compound": "CCOc1ccc2nc(SCc3nc(N)nc(N4CCOCC4)n3)sc2c1", "note": "[PF-719, 4-(((6-ethoxybenzo[d]thiazol-2-yl)thio)methyl)-6-morpholino-1,3,5-triazin-2-amine]", "values": [{"measurement": "brain level above the Ki", "setting": "[1]; 5 mg/kg, 90 min", "value": 30, "unit": "fold"}, {"measurement": "Kp at 90 min", "setting": "[1]; mouse, brain and plasma, other: i.p. or p.o., single dose 5 mg/kg i.p. or p.o., 90 min, read-out: brain level as share of plasma level", "value": "~0.3"}, {"measurement": "concentration at 90 min", "setting": "[1]; mouse, brain, other: i.p. or p.o., single peripheral dose of 5 mg/kg i.p. or p.o., at 90 min", "value": "450 ± 110", "unit": "nM"}, {"measurement": "half-life", "setting": "[1]; mouse, in vivo, other: i.p. or p.o., single dose 5 mg/kg i.p. or p.o.", "value": 6, "unit": "h"}, {"measurement": "Oral bioavailability", "setting": "[1]; p.o. compared with i.p.", "value": "equal"}, {"measurement": "learning and memory performance", "setting": "[2]", "value": "significantly greater than Vehicle/untreated levels"}]}]}
